Where no end group is shown, it is not given here.
Columns and labels:
[1] = tested on: interactions entre les macrophages et les lymphocytes auxiliaires (lymphocytes T4) et entre les lymphocytes T4 et les lymphocytes B; assay: In vitro cell interaction tests in the system of FISHER et al (influenza virus); format: cell-based; conditions: individually or in synergy tests
lymphocytes T, monocytes = assay: Proliferation after separate preincubation of purified T lymphocytes and monocytes with peptides or antibodies (synergy of inhibition); format: cell-based, humain; conditions: T lymphocytes preincubated with the labelled substance, monocytes preincubated with "T₄-12"; sub-inhibitory concentrations
Procedure: Les monocytes sont obtenus après adhérence des cellules mononucléées (10⁷ /ml) sur boîte de Pétri (Corning) pendant une heure à 37°C. Ces boîtes de Pétri ont été préalablement incubées à 4°C avec du SVF décomplémenté, durant la nuit. Après avoir récupéré les cellules non adhérentes, les cellules adhérentes sont dé-tachées avec un barreau caoutchouté (rubber policeman) et par un pipettage vigoureux. Après deux lavages, elles sont irradiées à 4000 rads (IBL 137, source CS-137, CEA).
Les monocytes restants sont séparés des cellules non adhérentes par un traitement à la L-méthylleucine ester (5.10⁶ /ml, 5 mM final, Sigma) 40 minutes à tempé-rature ambiante (18). La réaction est arrêtée par addition de sérum AB humain (10 % final et lavages à froid).
Les lymphocytes T et B sont séparés par la technique des rosettes E. Les cellules T étant capables de former des rosettes en présence de globules rouges de mouton sensibilisés à la neuraminidase, après une incubation d'une heure à 0°C. Les cellules formant rosettes (E⁺) seront séparées des cellules ne formant pas rosettes (E⁻ ou B) par sédimentation sur gradient Ficoll-Hypaque. Les globules rouges de mouton sont lysés par choc hypotonique.
d'incubation des populations lymphoïdes purifiées avec les peptides ou des anticorps monoclonaux spécifiques des molé-cules T₄ et HLA-DR ont été effectuées. […]

[2] = tested on: lymphocytes T, lymphocytes B, monocytes; format: cell-based, humain; conditions: result in words; b210: peptides of different length compared, 0,1-10 µg/ml
lymphocytes T = assay: T-lymphocyte proliferation test induced by influenza virus A/Bangkok, fresh cells (tritiated thymidine incorporation); format: cell-based, humain; conditions: result in words

Molecule	capacité d'inhiber in vitro les interactions entre les macrophages et les lymphocytes T4 et entre les lymphocytes T4 et les lymphocytes B [1]	synergie d'inhibition de la prolifération (lymphocytes T, monocytes)	inhibition de la production d'anticorps anti-influenza [2]	inhibition de la prolifération spécifique du virus influenza des lymphocytes T (lymphocytes T)
CC(C)[C@H](N)C(=O)N[C@@H](CCCNC(=N)N)C(=O)N[C@@H](Cc1ccccc1)C(=O)N[C@@H](CC(=O)O)C(=O)N[C@@H](CO)C(=O)N[C@@H](CC(=O)O)C(=O)O [XIII, H₂N-VRFDSD-OH]	capables			
LRFDSD [XIV, H₂N―――LRFDSD―――OH]	capables			
LRFDSDL [DR-7, H₂N-LRFDSDL-OH]		intermédiaire	puis and intermédiaires	intermédiaires
